The source of these data is ChEMBL document CHEMBL5625232, “Development of selective class I protein arginine methyltransferase inhibitors through fragment-based drug design approach” (Eur J Med Chem, 2023).

Structures are written as SMILES.

The nature of data set [1]: Stability in human plasma assessed as compound remaining measured after 2 hrs by LC-MS/MS analysis. In kind it is ADME, cell-free. As to conditions: read-out: Stability.
Data set [2] has as its target Histone-lysine N-methyltransferase, H3 lysine-79 specific (Homo sapiens) (UniProt Q8TEK3). In words: Displacement of 3H-SAM from DOT1L (unknown origin) at 30 uM incubated for 1 hr in presence of substrate by SPA assay relative to control.
The target of data set [3] is T1, Histone-lysine N-methyltransferase SUV39H1 (Homo sapiens) (UniProt O43463).
T1 sequence (whole entry): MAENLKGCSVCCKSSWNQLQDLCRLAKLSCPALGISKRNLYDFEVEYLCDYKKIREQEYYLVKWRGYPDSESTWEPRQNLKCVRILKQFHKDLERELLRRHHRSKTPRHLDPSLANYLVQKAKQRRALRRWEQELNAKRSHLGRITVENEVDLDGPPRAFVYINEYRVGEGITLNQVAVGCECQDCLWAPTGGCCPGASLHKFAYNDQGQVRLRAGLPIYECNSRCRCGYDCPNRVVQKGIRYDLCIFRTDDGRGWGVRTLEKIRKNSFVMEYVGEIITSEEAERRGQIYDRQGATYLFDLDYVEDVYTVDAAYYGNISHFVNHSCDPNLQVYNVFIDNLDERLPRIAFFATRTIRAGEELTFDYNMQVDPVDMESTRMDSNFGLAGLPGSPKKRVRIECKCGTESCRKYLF
In words: Displacement of 3H-SAM from SUV39H1 (unknown origin) using biotinylated-histone H3 peptide as substrate at 30 uM incubated for 45 mins by SPA assay relative to control.

Data set [4] deals with T2, Histone-lysine N-methyltransferase SMYD3 (Homo sapiens) (UniProt Q9H7B4).
T2 sequence (whole entry): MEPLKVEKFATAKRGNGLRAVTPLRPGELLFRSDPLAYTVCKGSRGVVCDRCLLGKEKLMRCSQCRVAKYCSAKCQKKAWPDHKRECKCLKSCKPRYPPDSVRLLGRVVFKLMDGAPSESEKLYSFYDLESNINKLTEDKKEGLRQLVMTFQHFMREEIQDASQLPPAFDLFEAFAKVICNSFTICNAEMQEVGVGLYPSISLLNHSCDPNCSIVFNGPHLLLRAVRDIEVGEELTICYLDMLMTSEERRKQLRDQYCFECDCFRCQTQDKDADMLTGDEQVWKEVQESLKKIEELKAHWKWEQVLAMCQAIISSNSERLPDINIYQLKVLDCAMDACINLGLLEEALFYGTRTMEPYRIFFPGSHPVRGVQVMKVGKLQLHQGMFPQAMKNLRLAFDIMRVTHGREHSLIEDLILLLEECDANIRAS
In words: Displacement of 3H-SAM from SMYD3 (unknown origin) using biotinylated-MAP3K2 as substrate at 30 uM incubated for 45 mins by SPA assay relative to control.

Data set [5] is described as follows: Lipophilicity, log D of compound in 1-octanol at pH 7.4 incubated for 4 hrs by HPLC-UV analysis. In kind it is physicochemical. The note with it: 1-octanol/aqueous phase.
The target in data set [6] is T2, Histone-lysine N-methyltransferase SMYD3 (Homo sapiens). As to the kind of experiment: Displacement of 3H-SAM from SMYD3 (unknown origin) using biotinylated-MAP3K2 as substrate at 10 uM incubated for 45 mins by SPA assay relative to control.
Data set [7] has as its target T3, Histone-arginine methyltransferase CARM1 (Homo sapiens, UniProt Q86X55).
T3 sequence (Q86X55 whole entry): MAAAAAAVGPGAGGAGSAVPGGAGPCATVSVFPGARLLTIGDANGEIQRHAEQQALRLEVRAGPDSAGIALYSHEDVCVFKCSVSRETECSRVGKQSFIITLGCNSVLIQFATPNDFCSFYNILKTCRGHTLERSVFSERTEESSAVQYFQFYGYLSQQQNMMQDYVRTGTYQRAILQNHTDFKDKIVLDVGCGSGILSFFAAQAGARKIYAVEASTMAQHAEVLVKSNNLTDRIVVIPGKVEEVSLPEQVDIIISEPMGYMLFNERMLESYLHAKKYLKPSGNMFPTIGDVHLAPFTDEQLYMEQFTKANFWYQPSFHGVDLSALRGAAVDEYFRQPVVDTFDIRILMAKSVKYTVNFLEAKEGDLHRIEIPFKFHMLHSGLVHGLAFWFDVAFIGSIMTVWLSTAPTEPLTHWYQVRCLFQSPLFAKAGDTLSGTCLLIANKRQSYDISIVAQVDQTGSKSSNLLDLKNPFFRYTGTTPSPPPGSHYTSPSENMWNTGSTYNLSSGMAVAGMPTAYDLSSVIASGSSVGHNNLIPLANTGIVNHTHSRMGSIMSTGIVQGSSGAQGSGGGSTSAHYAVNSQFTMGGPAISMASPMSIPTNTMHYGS
As to the kind of experiment: Binding affinity to PRMT4 (unknown origin) assessed as dissociation constant by ITC analysis.

Data set [8] addresses T1, Histone-lysine N-methyltransferase SUV39H1 (Homo sapiens). In words: Displacement of 3H-SAM from SUV39H1 (unknown origin) using biotinylated-histone H3 peptide as substrate at 10 uM incubated for 45 mins by SPA assay relative to control.

Chain of Histone-lysine N-methyltransferase, H3 lysine-79 specific (Homo sapiens) (Q8TEK3 whole entry, looked up): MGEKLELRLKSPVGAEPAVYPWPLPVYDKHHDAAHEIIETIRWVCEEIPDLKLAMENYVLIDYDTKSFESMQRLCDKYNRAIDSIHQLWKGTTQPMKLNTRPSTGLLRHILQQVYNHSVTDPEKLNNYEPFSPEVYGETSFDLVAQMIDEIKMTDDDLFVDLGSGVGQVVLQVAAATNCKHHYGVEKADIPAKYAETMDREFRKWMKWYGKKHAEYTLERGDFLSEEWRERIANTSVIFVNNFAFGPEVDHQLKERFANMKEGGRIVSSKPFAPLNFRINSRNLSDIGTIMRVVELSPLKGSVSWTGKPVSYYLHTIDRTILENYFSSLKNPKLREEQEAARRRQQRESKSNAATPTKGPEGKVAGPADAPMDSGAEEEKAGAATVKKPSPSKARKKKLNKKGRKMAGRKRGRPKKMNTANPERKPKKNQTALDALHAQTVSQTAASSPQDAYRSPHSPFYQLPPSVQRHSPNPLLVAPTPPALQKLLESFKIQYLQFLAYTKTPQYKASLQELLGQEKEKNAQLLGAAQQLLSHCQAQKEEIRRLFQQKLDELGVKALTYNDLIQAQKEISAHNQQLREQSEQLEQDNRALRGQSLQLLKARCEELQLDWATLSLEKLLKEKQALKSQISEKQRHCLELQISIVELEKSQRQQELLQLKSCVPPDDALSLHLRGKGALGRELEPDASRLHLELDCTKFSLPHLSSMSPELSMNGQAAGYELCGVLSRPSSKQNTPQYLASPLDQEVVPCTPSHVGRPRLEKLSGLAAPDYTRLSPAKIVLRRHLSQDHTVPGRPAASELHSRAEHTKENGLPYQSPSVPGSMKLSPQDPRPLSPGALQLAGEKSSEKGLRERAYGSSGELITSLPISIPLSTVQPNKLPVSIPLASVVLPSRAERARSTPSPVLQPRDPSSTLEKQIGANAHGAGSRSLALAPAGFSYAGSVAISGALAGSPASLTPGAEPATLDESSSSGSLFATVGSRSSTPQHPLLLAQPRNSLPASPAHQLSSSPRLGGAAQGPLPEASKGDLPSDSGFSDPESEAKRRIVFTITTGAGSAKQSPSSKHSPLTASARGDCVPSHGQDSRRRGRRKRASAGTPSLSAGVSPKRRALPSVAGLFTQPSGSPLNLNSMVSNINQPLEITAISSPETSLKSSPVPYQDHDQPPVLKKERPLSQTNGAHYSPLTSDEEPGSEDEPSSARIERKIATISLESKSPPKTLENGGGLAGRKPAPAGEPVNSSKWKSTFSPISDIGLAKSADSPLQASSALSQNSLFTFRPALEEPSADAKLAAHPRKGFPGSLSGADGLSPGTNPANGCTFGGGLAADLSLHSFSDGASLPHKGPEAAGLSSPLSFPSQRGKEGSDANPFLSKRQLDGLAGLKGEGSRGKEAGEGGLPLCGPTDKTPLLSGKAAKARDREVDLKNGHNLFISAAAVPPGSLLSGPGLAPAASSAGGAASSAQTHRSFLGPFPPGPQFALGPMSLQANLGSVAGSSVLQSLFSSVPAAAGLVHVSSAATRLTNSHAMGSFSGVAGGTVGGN

`CNCCN1CCC(NC(=O)c2ccc3c(Nc4ccc(CN)cc4)ncnc3c2)C1` (racemic): the remaining at 2 h in data set [1] was 91.3%. For the same compound, the inhibition in data set [2] was 11%; in data set [3], under 25%; in data set [4], under 25%. This compound also registered a log distribution coefficient (logD) at 4 h in data set [5] of -2.16.
With `CNCCN1CC[C@@H](NC(=O)c2ccc3c(Nc4ccc(CN)cc4)ncnc3c2)C1`, the remaining at 2 h in data set [1] worked out at 71.2%. Besides, the inhibition in data set [6] and in data set [8] was under 25% each time. Also, in data set [7], the Kd came to 25 µM. The compound also had a pH-dependent lipophilicity (logD) at 4 h in data set [5] of -2.27.
`CNCCN1CC[C@H](NC(=O)c2ccc3c(Nc4ccc(CN)cc4)ncnc3c2)C1`: the inhibition in data set [6] and in data set [8] was under 25% in each case. Further, the equilibrium dissociation constant (Kd) in data set [7] was 20 µM.
